Test results from ChEMBL document CHEMBL1158618, “Two new asterosaponins, archasterosides A and B, from the Vietnamese starfish Archaster typicus and their anticancer properties” (Bioorg Med Chem Lett, 2010).
Activity calls are given as the source filed them. The rule behind the calls is not given here.

What was measured:
[1] = Cytotoxicity against mouse promotion-sensitive JB6 Cl41 cells by MTS assay; type: cell-based
HeLa = test: Cytotoxicity against human HeLa cells by MTS assay; type: functional, cell-based
JB6 Cl41 = test: Induction of NF-kappaB-dependent transcriptional activity in mouse JB6 Cl41 cells at 125 uM after 6 hrs; type: cell-based
[2] = molecular target: Cellular tumor antigen p53 (Mus musculus) (UniProt P02340); test: Induction of p53-dependent transcriptional activity in mouse JB6 Cl41 cells at 12.5 uM after 6 hrs; type: cell-based
Sequence of Cellular tumor antigen p53 (Mus musculus) (P02340 whole entry): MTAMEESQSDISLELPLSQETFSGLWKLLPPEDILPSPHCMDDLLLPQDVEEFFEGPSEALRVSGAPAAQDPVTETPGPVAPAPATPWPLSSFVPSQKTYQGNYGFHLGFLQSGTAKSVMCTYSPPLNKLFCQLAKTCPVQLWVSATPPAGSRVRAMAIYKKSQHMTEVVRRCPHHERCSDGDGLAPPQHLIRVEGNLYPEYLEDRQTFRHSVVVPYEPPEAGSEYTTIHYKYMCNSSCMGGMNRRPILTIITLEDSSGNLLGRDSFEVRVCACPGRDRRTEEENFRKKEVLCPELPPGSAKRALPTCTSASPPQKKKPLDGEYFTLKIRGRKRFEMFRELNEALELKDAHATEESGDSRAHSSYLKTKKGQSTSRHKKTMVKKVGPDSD

[3] = molecular target: Transcription factor Jun (Mus musculus) (UniProt P05627); test: Induction of AP1-dependent transcriptional activity in mouse JB6 Cl41 cells at 125 uM after 6 hrs; type: cell-based
Sequence of Transcription factor Jun (Mus musculus) (P05627 whole entry): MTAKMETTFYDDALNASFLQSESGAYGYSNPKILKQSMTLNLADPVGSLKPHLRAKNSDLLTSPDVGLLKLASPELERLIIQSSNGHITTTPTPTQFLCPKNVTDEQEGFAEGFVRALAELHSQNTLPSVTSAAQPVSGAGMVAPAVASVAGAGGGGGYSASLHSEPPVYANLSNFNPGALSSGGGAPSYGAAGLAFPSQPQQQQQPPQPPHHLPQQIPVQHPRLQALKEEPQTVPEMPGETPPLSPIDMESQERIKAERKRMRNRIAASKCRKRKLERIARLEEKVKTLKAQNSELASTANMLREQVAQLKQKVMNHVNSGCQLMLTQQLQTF

[4] = Cytotoxicity against mouse promotion-sensitive JB6 Cl41 cells up to 50 uM by MTS assay; type: cell-based

fold change (FC) [2] | fold change (FC) [3] | Structure (SMILES) | IC50 [1] [µM] | IC50 (HeLa) [µM] | Activity (JB6 Cl41) | Activity [4]
– | – | CC[C@@H](C(C)C)[C@@H]1O[C@H]1[C@@](C)(O)[C@H]1[C@@H](O)C[C@H]2[C@@H]3C[C@H](O[C@@H]4O[C@H](CO)[C@@H](O)[C@H](O[C@@H]5O[C@H](C)[C@@H](O[C@@H]6O[C@H](C)[C@@H](O)[C@H](O)[C@H]6O[C@@H]6O[C@H](C)[C@H](O)[C@H](O)[C@H]6O)[C@H](O)[C@H]5O[C@@H]5O[C@H](C)[C@@H](O)[C@H](O)[C@H]5O)[C@H]4O)[C@H]4C[C@@H](OS(=O)(=O)O)CC[C@]4(C)C3=CC[C@]12C [ARCHASTEROSIDE A] | 37 | 24 | – | –
1.3 | 1.7 | CC(C)CCC[C@@](C)(O)[C@H]1[C@@H](O)C[C@H]2[C@@H]3C[C@H](O[C@@H]4O[C@H](C)[C@@H](O)[C@H](O[C@@H]5O[C@H](C)[C@@H](O[C@@H]6O[C@H](C)[C@@H](O)[C@H](O)[C@H]6O[C@@H]6O[C@H](C)[C@H](O)[C@H](O)[C@H]6O)[C@H](O)[C@H]5O[C@@H]5O[C@H](C)[C@@H](O)[C@H](O)[C@H]5O)[C@H]4O)[C@H]4C[C@@H](OS(=O)(=O)O)CC[C@]4(C)C3=CC[C@@]21C [ARCHASTEROSIDE B] | 18 | 14 | inactive | –
– | – | CC(C)[C@H](C)[C@@H]1O[C@H]1[C@@](C)(O)[C@H]1[C@@H](O)C[C@H]2[C@@H]3C[C@H](O[C@@H]4O[C@H](CO)[C@@H](O)[C@H](O[C@@H]5O[C@H](C)[C@@H](O[C@@H]6O[C@H](C)[C@@H](O)[C@H](O)[C@H]6O[C@@H]6O[C@H](C)[C@H](O)[C@H](O)[C@H]6O)[C@H](O)[C@H]5O[C@@H]5O[C@H](C)[C@@H](O)[C@H](O)[C@H]5O)[C@H]4O)[C@H]4C[C@@H](OS(=O)(=O)[O-])CC[C@]4(C)C3=CC[C@]12C.[Na+] [REGULAROSIDE A] | – | 110 | – | Non-toxic
